Assay results as given in patent US6544727B1, “Methods and devices for the removal of psoralens from blood products” (Cerus Corporation, priority 1995, dated 2003).
Like-named read-outs stand apart in the source and are kept apart here.

Key:
[1] = test system: Salmonella tester strain TA98; assay: Ames test, strain TA98; conditions: TA98 − S9; 10 μg/plate
Description: (§1) In this example the compounds of the present invention are tested for their dark mutagenicity using an Ames assay. The procedures used for the Salmonella mutagenicity test as described in detail by Maron and Ames were followed exactly. Maron, D. M. and B. N. Ames, Mutation Research 113: 173 ( 1983). A brief description for each procedure is given here. The tester strains TA97a, TA98, TA100, TA102, TA1537 and TA1538 were obtained from Dr. Ames. TA97a, TA98, TA1537 and TA1538 are frameshift tester strains. TA100 and TA102 are base-substitution tester strains. Upon receipt each strain was cultured under a variety of conditions to confirm the genotypes specific to the strains.
(§2) The first tests done with the strains were to determine the range of spontaneous reversion for each of the strains. With each mutagenicity experiment the spontaneous reversion of the tester strains to histidine independence was measured and expressed as the number of spontaneous revertants per plate. This served as the background controls.
For all experiments, the pre-incubation procedure was used. In this procedure one vial of each tester strain was thawed and 20 μL of this culture was added to 6 mL of Oxoid Nutrient Broth #2. This solution was allowed to shake for 10 hours at 37° C. In the pre-incubation procedure, 0.1 mL of this overnight culture was added to each of the required number of sterile test tubes. To half of the tubes 0.5 mL of a 10% S-9 solution containing Aroclor 1254 induced rat liver extract (Molecular Toxicology Inc., Annapolis, Md.), and MgCl2, KCl, glucose-6-phosphate, NADP, and sodium phosphate buffer (Sigma, St. Louis, Mo.) were added. To the other half of the tubes 0.5 mL of 0.2M sodium phospate buffer, pH 7.4, was used in place of the S-9 mixture (the—S9samples). […] The 0.7 mL mixture was vortexed and then pre-incubated while shaking for 20 minutes at 37° C. After shaking, 2 mL of molten top agar supplemented with histidine and biotin were added to the 0.7 mL mixture and immediately poured onto a minimal glucose agar plate (volume of base agar was 20 mL). The top agar was allowed 30 minutes to solidify and then the plates were inverted and incubated for 44 hours at 37° C. After incubation the number of revertant colonies on each plate were counted. […] (“n” represents the number of replicates performed for each data point.)

[2] = test system: Salmonella tester strain TA1537; assay: Ames test, strain TA1537; conditions: TA1537 − S9; 10 μg/plate
Description: as §1, §2
(§3) For all experiments, the pre-incubation procedure was used. In this procedure one vial of each tester strain was thawed and 20 μL of this culture was added to 6 mL of Oxoid Nutrient Broth #2. This solution was allowed to shake for 10 hours at 37° C. In the pre-incubation procedure, 0.1 mL of this overnight culture was added to each of the required number of sterile test tubes. To half of the tubes 0.5 mL of a 10% S-9 solution containing Aroclor 1254 induced rat liver extract (Molecular Toxicology Inc., Annapolis, Md.), and MgCl2, KCl, glucose-6-phosphate, NADP, and sodium phosphate buffer (Sigma, St. Louis, Mo.) were added. To the other half of the tubes 0.5 mL of 0.2M sodium phospate buffer, pH 7.4, was used in place of the S-9 mixture (the—S9samples). Finally 0.1 mL of the test solution containing either 0, 0.1, 0.5, 1, 5, 10, 50, 100, 250, or 500 μg/mL of the test compound was added. The 0.7 mL mixture was vortexed and then pre-incubated while shaking for 20 minutes at 37° C. After shaking, 2 mL of molten top agar supplemented with histidine and biotin were added to the 0.7 mL mixture and immediately poured onto a minimal glucose agar plate (volume of base agar was 20 mL). The top agar was allowed 30 minutes to solidify and then the plates were inverted and incubated for 44 hours at 37° C. After incubation the number of revertant colonies on each plate were counted. […] (“n” represents the number of replicates performed for each data point.)

HIV-1 = conditions: 1 minute irradiation
Description: As in the R17 assay, small aliquots of the compounds listed in TABLES 10 and 11, below, at the concentrations listed in the table, were added to stock HIV-1 to a total of 0.5 mL. The stock HIV (10^5−10^7 plaque forming units/mL) was in DMEM15% FBS. […] Controls included HIV-1 stock only, HIV-1 plus UVA only, and HIV-1 plus the highest concentration of each psoralen tested, with no UVA. Post irradiation, all samples were store frozen at −70° C. until assayed for infectivity by a microtiter plaque assay. Aliquots for measurement of residual HIV infectivity in the samples treated with a compound of the present invention were withdrawn and cultured.
Residual HIV infectivity was assayed using an MT-2 infectivity assay. […] The assay medium was 85% DMEM (with a high glucose concentration) containing 100 μg of streptomycin, 100 U of penicillin, 50 μg of gentamicin, and 1 μg of amphotericin B per mL, 15% FBS and 2 μg of Polybrene (Sigma Chemical Co., St. Louis, Mo.) per mL. Test and control samples from the inactivation procedure were diluted in 50% assay medium and 50% normal human pooled plasma The samples were serially diluted directly in 96-well plates (Corning Glass Works, Corning, N.Y.). The plates were mixed on an oscillatory shaker for 30 seconds and incubated at 37° C. in a 5% CO2 atmosphere for 1 to 18 hours. […] After an additional 1 hour of incubation at 37° C. in 5% CO2, 0.075 mL of assay medium containing 1.6% SeaPlaque agarose (FMC Bioproducts, Rockland, Me.) and prewarmed to 38.5° C. was added to each well. The plates were kept at 37° C. for a few minutes until several plates had accumulated and then centrifuged in plate carriers at 600×g for 20 minutes in a centrifuge precooled to 10° C. In the centrifuge, cell monolayers formed prior to gelling of the agarose layer. The plates were incubated for 5 days at 37° C. in 5% CO2 and stained by the addition of 0.05 mL of 50 μg/mL propidium iodide (Sigma Chemical Co.) in phosphate-buffered saline (pH 7.4) to each well. After 24 to 48 hours, the red fluorescence-stained microplaques were visualized by placing the plates on an 8,000 μW/cm^2304 nm UV light box (Fotodyne, Inc., New Berlin, Wis.). The plaques were counted at a magnification of x20 to x25 through a stereomicroscope.

R17 bacteriophage = R17 bacteriophage inactivation assay, varying compound concentration; type: cell-based; conditions: for R17 inactivation efficiency compared with AMT or 8-MOP (in words): varying concentration, Tables 6-9, FIGS. 6-10; for R17 Log Kill: starting titer approx. 7.1 logs
Description: An r-17 bacteriophage assay was used in this example to predict pathogen inactivation efficiency and to determine nucleic acid binding of the photoreactive binding compounds of the present invention. In the r-17 assay, the bacteriophage was placed in a solution with each compound tested and was then irradiated. The ability of the phage to subsequently infect bacteria and inhibit their growth was measured. The bacteriophage was selected for its relatively accessible nucleic acid such that the culture growth inhibition would accurately reflect nucleic acid damage by the test compounds. The bacteriophage assay for nucleic acid binding to test compounds offers a safe and inexpensive procedure to identify compounds likely to display efficient pathogen inactivation.
The R17 was grown up in Hfr 3000 bacteria, approximate titer 5×10^11. (R17 and Hfr 3000 were obtained from American Tissue Culture Collection (ATCC), Washington, D.C.) The R17 phage stock was added to a solution of 15% fetal bovine serum in Dulbecco's Modified Eagles Medium (DMEM) to a final phage concentration of 10^9/mL. An aliquot (0.5 mL) was transferred to a 1.5 mL snap-top polyethylene tube. An aliquot (0.004-0.040 mL) of the test compound stock solution prepared in water, ethanol or dimethylsulfoxide at 0.80-8.0 mM was added to the tube. Compounds were tested at concentrations between 4 μM and 320 μM. […] The tubes were placed in a light device as described in EXAMPLE 1 and irradiated for between 1 and 10 minutes. Sterile 13 mL dilution tubes were prepared; each test compound required one tube with 0.4 mL of Luria broth (LB) and five tubes containing 0.5 mL of LB broth. To make the dilutions, a 0.100 mL aliquot of the irradiated solution of phage and test compound was added to the first dilution tube of 0.4 mL of media then 0.020 mL of this solution was added to the second tube of 0.5 mL medium (1:25). The second solution was then diluted serially (1:25) into the remaining tubes. To each diluted sample was added 0.050 mL of Hfr 3000 bacteria cultured overnight and 3 mL of molten LB top agar and the mixed materials were poured onto LB broth plates. After the top agar hardened, the plates were incubated at 37° C. overnight. The plaque forming units were then counted the following morning and the titer of the phage remaining after phototreatment was calculated based on the dilution factors.
The following controls were run: the “phage only” in which phage was not treated with test compound and not irradiated (listed as “starting titer” in the tables below); the “UV only” in which the phage was irradiated in the absence of test compound; and the “dark” control in which the phage/test compound solution was not irradiated before it was diluted and plated.

[3] = test system: Salmonella tester strain TA102; assay: Ames test, strain TA102; conditions: TA102 − S9; 100 μg/plate
Description: as §1, §2, §3

mouse reticulocytes = conditions: positive control, 30 mg/kg administered only once, on day three, blood on day 5; 30 mg/kg
Description: Male Balb/c mice were then injected with 0.1 ml of a compound solution via the tail vein. At least 3 mice were injected per dose level. Saline only was used as a negative control. For a positive control, cyclophosphamide (cycloPP) was administered at a dose of 30 mg/kg. In the experimental group, the injections were repeated once per day for four days. In the positive control group, the sample was administered only once, on day three. On day 5, several microliters of blood were withdrawn from each subject and smeared on a glass slide. Cells were fixed in absolute methanol and stored in a slide rack.
For analysis, cells were stained with acridine orange and visualized under a fluorescence microscope by counting: (i) the number of reticulocytes per 5000 erythrocytes; and (ii) the number of micronucleated reticulocytes per 1000 reticulocytes. Reticulocytes were distinguished by their red fluorescence due to the presence of RNA. Micronuclei were distinguished by their green fluorescence due to the presence of DNA. The percentage of reticulocytes (%PCE) was then calculated. A decrease in the frequency of […] in the percentage of reticulocytes, is an indication of bone marrow toxicity. The percentage of reticulocytes with micronuclei (%PCE with MN) was also calculated. An increase in %PCE with MN is a measure of clastogenicity.
After initial results were determined, the experiment was repeated using increased dose levels, until: (i) Micronucleus formation was seen; or (ii) Bone marrow toxicity was observed; or (iii) The lethal dose was reached; or (iv) A dose of 5 g/kg was administered.

[4] = test system: Salmonella tester strain TA100; conditions: TA100 − S9; 1.5 μg/plate
Description: as §1, §2, §3

[5] = test system: Salmonella tester strain TA1538; conditions: TA1538 − S9; 1.5 μg/plate
Description: as §1, §2, §3

[6] = 16 μM, starting titer approximately 5 logs (Table 10)
[7] = 32 μM, starting titer approximately 5 logs (Table 10)
[8] = 64 μM, starting titer approximately 5 logs (Table 10)

With Nc1c2ccccc2nc2ccccc12 [9-Amino-acridine, reference compound] the “revertant colonies per plate” value [1] was 284 and the “revertant colonies per plate” value [2] was 284.
With Cc1oc2c(C)c3oc(=O)cc(C)c3cc2c1COCCOCCNCCCCN [Compound 8, 4′-(12-amino-8-aza-2,5-dioxa)dodecyl-4,5′,8-trimethylpsoralen] the “HIV Log Kill” value (HIV-1; [6]) was 1.1 log, the “HIV Log Kill” value (HIV-1; [7]) was 1.9 log and the “HIV Log Kill” value (HIV-1; [8]) was 3.7 log.
In the case of Cc1cc(=O)oc2c(C)c3oc(CNCCN)c(C)c3cc12 [Compound 16, 5′-(4-amino-2-aza)butyl-4,4′,8-trimethylpsoralen], the “R17 inactivation efficiency compared with AMT or 8-MOP (in words)” value (R17 bacteriophage) is reported as “significantly higher inactivation efficiency than does AMT”.
OO [hydrogen peroxide] was tested, and the “revertant colonies per plate” value [3] was 660.
In the case of O=P1(N(CCCl)CCCl)NCCCO1 (stereo not drawn) [CylcoPP, cyclophosphamide, reference compound], the “PCE + MN (%)” value (mouse reticulocytes) is reported as 2.09 ± 0.17% and the “PCE/RBC (%)” value (mouse reticulocytes) is reported as 0.99 ± 0.33%.
[N-]=[N+]=[N-] [Sodium Azide, sodium azide, reference compound] was tested, and the “revertant colonies per plate” value [4] was 965 and the “revertant colonies per plate” value [5] was 965.
With Cc1oc2c(C)c3oc(=O)cc(C)c3cc2c1CNCCCN [Compound 5, 4′-(5-amino-2-aza)pentyl-4,5′,8-trimethylpsoralen] the “R17 Log Kill” value (R17 bacteriophage; 16 μM, 1 minute irradiation = 1.2 J/cm^2 (Table 8)) was 5.6 log, the “R17 Log Kill” value (R17 bacteriophage; 32 μM, 1 minute irradiation = 1.2 J/cm^2 (Table 8)) was over 6.1 log and the “R17 Log Kill” value (R17 bacteriophage; 64 μM, 1 minute irradiation = 1.2 J/cm^2 (Table 8)) was over 6.1 log. For the same molecule, the “R17 inactivation efficiency compared with AMT or 8-MOP (in words)” value (R17 bacteriophage) was “significantly higher inactivation efficiency than does AMT”, the “HIV Log Kill” value (HIV-1; [6]) was 0.9 log and the “HIV Log Kill” value (HIV-1; [7]) was 1.3 log. The “HIV Log Kill” value (HIV-1; [8]) was over 2.6 log.
In the case of Cc1oc2c(C)c3oc(=O)cc(C)c3cc2c1COCCOCCN [Compound 7, 4′-(7-amino-2,5-oxa)heptyl-4,5′,8-trimethylpsoralen], the “R17 Log Kill” value (R17 bacteriophage; 16 μM, 1 minute irradiation (Table 9)) is reported as over 6 log, the “R17 Log Kill” value (R17 bacteriophage; 32 μM, 1 minute irradiation (Table 9)) is reported as over 6 log and the “R17 Log Kill” value (R17 bacteriophage; 64 μM, 1 minute irradiation (Table 9)) is reported as over 6 log. The “HIV Log Kill” value (HIV-1; [6]) was 0.8 log, the “HIV Log Kill” value (HIV-1; [7]) was 2.1 log and the “HIV Log Kill” value (HIV-1; [8]) was 3.5 log.
With Cc1oc2c(C)c3oc(=O)cc(C)c3cc2c1CNCCCOCCCCOCCN [Compound 9, 4′-(13-amino-2-aza-6,11-dioxa)tridecyl-4,5′,8-trimethylpsoralen] the “HIV Log Kill” value (HIV-1; 16 μM, starting titer approximately 5.4 logs (Table 11)) was 0.8 log, the “HIV Log Kill” value (HIV-1; 32 μM, starting titer approximately 5.4 logs (Table 11)) was 1.4 log and the “HIV Log Kill” value (HIV-1; 64 μM, starting titer approximately 5.4 logs (Table 11)) was 2.7 log.
